In ChEMBL document CHEMBL1132113, “Inhibitors of efflux pumps in Pseudomonas aeruginosa potentiate the activity of the fluoroquinolone antibacterial levofloxacin” (1999):
Values after ≈ are worked out from the molar mass of the structure shown. Square brackets hold non-standard residues; d marks the D form. Peptide text beside a SMILES is read from it. * marks the point of attachment. Orn = NCCC[C@H](N)C(=O)O; βNA = c1ccc2cc(N*)ccc2c1

Key:
[1] = tested on: Pseudomonas aeruginosa; experiment: Minimum Inhibitory concentration required to inhibit the growth of Pseudomonas aeruginosa (strain PAM 1032); format: functional
[2] = (§1) Volume of synergy by MacSynergy II 3-D analysis.
[3] = tested on: Pseudomonas aeruginosa; experiment: Minimum Inhibitory concentration required to reduce the MIC of levofloxacin by 8-fold against PAM 1032; format: functional
[4] = tested on: Pseudomonas aeruginosa; experiment: as §1; format: functional
[5] = tested on: Pseudomonas aeruginosa; experiment: Minimum Inhibitory concentration required to inhibit the growth of Pseudomonas aeruginosa (strain PAM 1032).; format: functional
[6] = tested on: Pseudomonas aeruginosa; experiment: Minimum inhibitory concentration of Levofloxacin in presence at a concentration of 1.25 ug/mL against PAM 1032; format: functional
[7] = tested on: Pseudomonas aeruginosa; experiment: Minimum inhibitory concentration of Levofloxacin in presence at a concentration of 40 ug/mL against PAM 1034.; format: functional
[8] = tested on: Pseudomonas aeruginosa; experiment: Minimum inhibitory concentration of Levofloxacin in presence at a concentration of 0 ug/mL against PAM 1034.; format: functional
[9] = tested on: Pseudomonas aeruginosa; experiment: Minimum Inhibitory concentration required to reduce the MIC of levofloxacin by 8-fold against PAM 1034.; format: functional
[10] = tested on: Pseudomonas aeruginosa; experiment: Minimum Inhibitory concentration required to reduce the MIC of levofloxacin by 8-fold against PAM 1033.; format: functional
[11] = tested on: Pseudomonas aeruginosa; experiment: Minimum inhibitory concentration of Levofloxacin in presence at a concentration of 10 ug/mL against PAM 1034.; format: functional
[12] = tested on: Pseudomonas aeruginosa; experiment: Minimum inhibitory concentration of Levofloxacin in presence at a concentration of 5 ug/mL against PAM 1034.; format: functional
[13] = tested on: Pseudomonas aeruginosa; experiment: Minimum inhibitory concentration of Levofloxacin in presence at a concentration of 10 ug/mL against PAM 1033.; format: functional
[14] = tested on: Pseudomonas aeruginosa; experiment: Minimum inhibitory concentration of Levofloxacin in presence at a concentration of 0 ug/mL against PAM 1032; format: functional
[15] = tested on: Pseudomonas aeruginosa; experiment: Minimum inhibitory concentration of Levofloxacin in presence at a concentration of 10 ug/mL against PAM 1032; format: functional
[16] = tested on: Pseudomonas aeruginosa; experiment: Minimum inhibitory concentration of Levofloxacin in presence at a concentration of 5 ug/mL against PAM 1032; format: functional
[17] = tested on: Pseudomonas aeruginosa; experiment: Minimum inhibitory concentration of Levofloxacin in presence at a concentration of 2.5 ug/mL against PAM 1034.; format: functional
[18] = tested on: Pseudomonas aeruginosa; experiment: Minimum inhibitory concentration of Levofloxacin in presence at a concentration of 40 ug/mL against PAM 1033.; format: functional
[19] = tested on: Pseudomonas aeruginosa; experiment: Minimum inhibitory concentration of Levofloxacin in presence at a concentration of 40 ug/mL against PAM 1032; format: functional
[20] = tested on: Pseudomonas aeruginosa; experiment: Minimum inhibitory concentration of Levofloxacin in presence at a concentration of 50 ug/mL against PAM 1033.; format: functional
[21] = tested on: Pseudomonas aeruginosa; experiment: Minimum inhibitory concentration of Levofloxacin in presence at a concentration of 2.50 ug/mL against PAM 1033.; format: functional
[22] = tested on: Pseudomonas aeruginosa; experiment: Minimum inhibitory concentration of Levofloxacin in presence at a concentration of 20 ug/mL against PAM 1032; format: functional
[23] = tested on: Pseudomonas aeruginosa; experiment: Minimum inhibitory concentration of Levofloxacin in presence at a concentration of 0 ug/mL against PAM 1033; format: functional
[24] = tested on: Pseudomonas aeruginosa; experiment: Minimum inhibitory concentration of Levofloxacin in presence at a concentration of 1.25 ug/mL against PAM 1033; format: functional
[25] = tested on: Pseudomonas aeruginosa; experiment: Minimum inhibitory concentration of Levofloxacin in presence at a concentration of 20 ug/mL against PAM 1034.; format: functional
[26] = tested on: Pseudomonas aeruginosa; experiment: Minimum inhibitory concentration of Levofloxacin in presence at a concentration of 20 ug/mL against PAM 1033.; format: functional
[27] = tested on: Pseudomonas aeruginosa; experiment: Minimum inhibitory concentration of Levofloxacin in presence at a concentration of 2.5 ug/mL against PAM 1032; format: functional
[28] = tested on: Pseudomonas aeruginosa; experiment: Minimum inhibitory concentration of Levofloxacin in presence at a concentration of 1.25 ug/mL against PAM 1034.; format: functional
[29] = Volume of synergy by MacSynergy II 3-D analysis
[30] = tested on: Pseudomonas aeruginosa; experiment: Minimum inhibitory concentration of Levofloxacin in presence at a concentration of 2.5 ug/mL against PAM 1034; format: functional
[31] = tested on: Pseudomonas aeruginosa; experiment: Minimum inhibitory concentration of Levofloxacin in presence at a concentration of 0 ug/mL against PAM 1034; format: functional
[32] = tested on: Pseudomonas aeruginosa; experiment: Minimum inhibitory concentration of Levofloxacin in presence at a concentration of 10 ug/mL against PAM 1034; format: functional
[33] = tested on: Pseudomonas aeruginosa; experiment: Minimum inhibitory concentration of Levofloxacin in presence at a concentration of 2.50 ug/mL against PAM 1033; format: functional
[34] = tested on: Pseudomonas aeruginosa; experiment: Minimum Inhibitory concentration required to reduce the MIC of levofloxacin by 8-fold against PAM 1033; format: functional
[35] = tested on: Pseudomonas aeruginosa; experiment: Minimum inhibitory concentration of Levofloxacin in presence at a concentration of 1.25 ug/mL against PAM 1034; format: functional
[36] = tested on: Pseudomonas aeruginosa; experiment: Minimum inhibitory concentration of Levofloxacin in presence at a concentration of 20 ug/mL against PAM 1034; format: functional
[37] = tested on: Pseudomonas aeruginosa; experiment: Minimum inhibitory concentration of Levofloxacin in presence at a concentration of 10 ug/mL against PAM 1033; format: functional
[38] = tested on: Pseudomonas aeruginosa; experiment: Minimum inhibitory concentration of Levofloxacin in presence at a concentration of 5 ug/mL against PAM 1034; format: functional
[39] = tested on: Pseudomonas aeruginosa; experiment: Minimum inhibitory concentration of Levofloxacin in presence at a concentration of 40 ug/mL against PAM 1033; format: functional
[40] = tested on: Pseudomonas aeruginosa; experiment: Minimum inhibitory concentration of Levofloxacin in presence at a concentration of 40 ug/mL against PAM 1034; format: functional
[41] = tested on: Pseudomonas aeruginosa; experiment: Minimum inhibitory concentration of Levofloxacin in presence at a concentration of 20 ug/mL against PAM 1033; format: functional
[42] = tested on: Pseudomonas aeruginosa; experiment: Minimum inhibitory concentration of Levofloxacin in presence at a concentration of 50 ug/mL against PAM 1033; format: functional
[43] = tested on: Pseudomonas aeruginosa; experiment: Minimum Inhibitory concentration required to reduce the MIC of levofloxacin by 8-fold against PAM 1034; format: functional

SMILES: NCCC[C@H](NC(=O)[C@@H](N)CCc1ccccc1)C(=O)Nc1ccc2ncccc2c1
- MIC [1]: > 512 µg/mL
- VOLSYN [2]: 2060
- MPC8 [3]: 10 µg/mL

SMILES: NCCC[C@H](NC(=O)[C@@H](N)Cc1ccccc1)C(=O)Nc1ccc2ccccc2c1
- VOLSYN [4]: 1760
- MPC8 [3]: 5 µg/mL
- MIC [5]: 512 µg/mL (≈ 1270 µM)

SMILES: NCCC[C@H](NC(=O)[C@@H](N)Cc1ccc(F)cc1)C(=O)Nc1ccc2ccccc2c1
- VOLSYN [4]: 2343
- MPC8 [3]: 5 µg/mL
- MIC [5]: 512 µg/mL (≈ 1210 µM)

SMILES: N=C(N)NCCC[C@H](NC(=O)[C@@H](N)Cc1ccccc1)C(=O)Nc1ccc2ccccc2c1 [PABETAN] (H-Phe-Arg-βNA)
- MIC [6]: 2 µg/mL (≈ 4.48 µM)
- MIC [7]: 0.03 µg/mL (≈ 0.0672 µM)
- MIC [8]: 4 µg/mL (≈ 8.96 µM)
- MPC8 [9]: 10 µg/mL
- MPC8 [10]: 5 µg/mL
- VOLSYN [4]: 1962
- MIC [11]: 0.25 µg/mL (≈ 0.56 µM)
- MIC [12]: 1 µg/mL (≈ 2.24 µM)
- MIC [13]: 0.125 µg/mL (≈ 0.28 µM)
- MIC [14]: 2 µg/mL (≈ 4.48 µM)
- MIC [15]: 0.125 µg/mL (≈ 0.28 µM)
- MIC [16]: 0.5 µg/mL (≈ 1.12 µM)
- MIC [17]: 4 µg/mL (≈ 8.96 µM)
- MIC [1]: > 512 µg/mL
- MIC [18]: 0.125 µg/mL (≈ 0.28 µM)
- MIC [19]: 0.06 µg/mL (≈ 0.134 µM)
- MIC [20]: 0.5 µg/mL (≈ 1.12 µM)
- MIC [21]: 2 µg/mL (≈ 4.48 µM)
- MIC [22]: 0.06 µg/mL (≈ 0.134 µM)
- MPC8 [3]: 10 µg/mL
- MIC [23]: 4 µg/mL (≈ 8.96 µM)
- MIC [24]: 4 µg/mL (≈ 8.96 µM)
- MIC [25]: 0.06 µg/mL (≈ 0.134 µM)
- MIC [26]: 0.125 µg/mL (≈ 0.28 µM)
- MIC [27]: 1 µg/mL (≈ 2.24 µM)
- MIC [28]: 4 µg/mL (≈ 8.96 µM)

SMILES: N[C@@H](Cc1ccccc1)C(=O)N[C@@H](Cc1c[nH]cn1)C(=O)Nc1ccc2ccccc2c1 (H-Phe-His-βNA)
- VOLSYN [4]: 463
- MPC8 [3]: >40 µg/mL
- MIC [5]: > 512 µg/mL

SMILES: NCCC[C@H](NC(=O)[C@@H](N)CCc1ccccc1)C(=O)Nc1cnc2ccccc2c1
- VOLSYN [29]: 2590
- MIC [6]: 1 µg/mL (≈ 2.38 µM)
- MIC [30]: 1 µg/mL (≈ 2.38 µM)
- MIC [14]: 2 µg/mL (≈ 4.77 µM)
- MIC [15]: 0.06 µg/mL (≈ 0.143 µM)
- MIC [16]: 0.125 µg/mL (≈ 0.298 µM)
- MIC [1]: > 512 µg/mL
- MIC [19]: 0.06 µg/mL (≈ 0.143 µM)
- MIC [31]: 4 µg/mL (≈ 9.53 µM)
- MIC [32]: 0.125 µg/mL (≈ 0.298 µM)
- MIC [22]: 0.06 µg/mL (≈ 0.143 µM)
- MIC [33]: 0.5 µg/mL (≈ 1.19 µM)
- MPC8 [34]: 2.5 µg/mL
- MIC [35]: 4 µg/mL (≈ 9.53 µM)
- MIC [36]: 0.125 µg/mL (≈ 0.298 µM)
- MIC [37]: 0.06 µg/mL (≈ 0.143 µM)
- MIC [38]: 0.25 µg/mL (≈ 0.596 µM)
- MIC [39]: 0.06 µg/mL (≈ 0.143 µM)
- MIC [40]: 0.125 µg/mL (≈ 0.298 µM)
- MPC8 [3]: 5 µg/mL
- MIC [23]: 4 µg/mL (≈ 9.53 µM)
- MIC [24]: 2 µg/mL (≈ 4.77 µM)
- MIC [41]: 0.06 µg/mL (≈ 0.143 µM)
- MIC [42]: 0.125 µg/mL (≈ 0.298 µM)
- MPC8 [43]: 5 µg/mL
- MIC [27]: 0.5 µg/mL (≈ 1.19 µM)

SMILES: CN(C(=O)[C@@H](N)Cc1ccccc1)[C@@H](CCCN)C(=O)Nc1ccc2ccccc2c1
- VOLSYN [4]: 2825
- MPC8 [3]: 5 µg/mL
- MIC [5]: 256 µg/mL (≈ 612 µM)

SMILES: C[C@H](N)C(=O)N[C@@H](CCCN)C(=O)Nc1ccc2ccccc2c1 (H-Ala-[Orn]-βNA)
- VOLSYN [4]: 486
- MPC8 [3]: 40 µg/mL
- MIC [5]: > 512 µg/mL

SMILES: NCCC[C@H](N)C(=O)Nc1ccc2ccccc2c1
- VOLSYN [4]: 183
- MPC8 [3]: >40 µg/mL
- MIC [5]: > 512 µg/mL

SMILES: NCCC[C@H](NC(=O)[C@@H](N)CCc1ccccc1)C(=O)Nc1ccc2c(c1)CCC2
- VOLSYN [29]: 2220
- MIC [1]: 256 µg/mL (≈ 627 µM)
- MPC8 [3]: 2.5 µg/mL

SMILES: NCCCC[C@H](NC(=O)[C@@H](N)Cc1ccccc1)C(=O)Nc1ccc2ccccc2c1
- VOLSYN [4]: 1390
- MPC8 [3]: 10 µg/mL
- MIC [5]: > 512 µg/mL

SMILES: NCCC[C@H](NC(=O)[C@@H](N)CCc1ccccc1)C(=O)Nc1ccccc1
- MIC [1]: > 512 µg/mL
- VOLSYN [2]: 906
- MPC8 [3]: >40 µg/mL

SMILES: NCCC[C@H](NC(=O)[C@@H](N)CCc1ccccc1)C(=O)Nc1ccc2ccccc2c1
- VOLSYN [4]: 2612
- MPC8 [3]: 2.5 µg/mL
- MIC [5]: 128 µg/mL (≈ 306 µM)
